Experimental data: patent US20110124574A1, “RESTORATION OF ESTROGEN RECEPTOR-(ALPHA) ACTIVITY” (priority 2008, published 2011)
Where no end group is shown, it is not given here. The star is where a group is joined. For = O=C*

Columns and labels:
ERα = ERα protein expression by Western blot in stimulated 4T1 cells; format: cell-based, mouse; details: stimulation for 24 and 48 hours
Protocol: Breast cancer cells were grown in 6 well plates, and stimulated with recombinant Wnt-5a protein (rW5a), the Wnt-5a derived Foxy-5 peptide (F5), recombinant Wnt-3a protein (rW3a), or a formylated random hexapeptide (Rdm) for 24 or 48 h. Following treatment cells were lysed and subjected to SDS-PAGE, transferred to nitrocellulose membranes and blotted for ERα expression. A: MDA-MB-231 cells stimulated with recombinant Wnt-5a, Foxy-5, Wnt-3a, Rdm. B: MDA-MB-468 cells stimulated with recombinant Wnt-5a or Foxy-5. C: 4T1 cells stimulated with recombinant Wnt-5a or Foxy-5. Positive controls (Pos) were included in order to confirm the correct band size for ERα. Two different positive controls were used: T47D cell lysates known to express ERα and MDA-MB-231 cells transiently transfected with a full length ERα plasmid, resulting in extremely high ERα expression (top row, right panel, third row, right panel). […]
(§1) Cells were lysed in Triton lysis buffer (50 mM Tris (pH7.5), 1% Triton x-100, 140 mM NaCl, 0.5 mM EDTA, 0.5 MgCl2, 10 mM NaF) with the addition of fresh leupeptin (1 μg/ml), Pefabloc (2 mM), aprotinin (20 μg/ml) and Na3VO4 (4 mM). […] Scanning and densitometry was performed using a Bio-Rad (Hercules Calif.) GS-800 densitometer with Quantity One software. […]

MDA-MB-231 cells = assay: Nuclear (Hoechst) staining for apoptotic cells after tamoxifen; format: cell-based, human; details: MDA-MB-231, stimulation 24 and 48 hours, tamoxifen 5 μM for the last 20 hours
Protocol: (§2) MDA-MB-231 cells were grown in 6 well plates and stimulated with recombinant Wnt-5a protein (rW5a) or the Wnt-5a derived Foxy-5 peptide (F5), for 24 or 48 h. Cells were treated with tamoxifen for the final 20 h and their apoptotic responses were measured via different methods. […] Arrows highlight apoptotic cells. Bars represent […]. B: Following treatment with rW5a, F5 and tamoxifen, or tamoxifen alone, cells were lysed and subjected to SDS-PAGE, transferred to nitrocellulose membranes and blotted for cleaved caspase 3. C: Treated cells were assessed for their relative caspase 3 activity using fluorometric spectrophotometry. The graph represents 6 separate experiments. * P<0.01, ** P<0.001. D: MTT assays were also performed on MDA-MB-231 cells treated with rWnt-5a, F5 and tamoxifen, or tamoxifen alone (MDA-MB-231 and MCF-7 cells) to assess cell growth inhibition. The graph represents the average of 6 separate experiments, with standard deviation represented by error bars. ** P<0.01, *** P<0.001.
MDA-MB-231 cells were plated on cover slips and allowed to adhere. Wnt-5a (0.6 μg/ml) or Foxy-5 (100 μM) were added for 24 or 48 hours. Cells were then treated with tamoxifen (5 μM) for the last 20 hours. MCF-7 cells were used as a positive control. […] The morphology was analyzed with Nikon E800 Eclipse Microscope with 60× objective.

cleaved caspase 3 = assay: Cleaved caspase 3 Western blot after tamoxifen; format: cell-based, human; details: MDA-MB-231, stimulation plus tamoxifen, compared with cells treated only with tamoxifen
Protocol: as §2, §1

Caspase 3 = Caspase 3 activity assay (fluorometric, DEVD-amc); format: cell-based, human; details: MDA-MB-231, stimulation plus tamoxifen 1 μM 20 hours; compared to untreated cells or tamoxifen alone
Protocol: as §2
Caspase 3 activity was determined via fluorescent spectrometry. The fluorogenic peptide DEVD-amc (Upstate Biotech) was used as a substrate. […] Reactions were incubated at 37° C. for 1 h and analysed on a FLUOstar plate reader (BMG Lab technologies). The total protein content of each lysates was measured using the Coomassie Plus Protein Assay and read outs averaged and adjusted accordingly. […]

Molecule | ERα levels (ERα) | apoptotic cells by Hoechst staining in response to tamoxifen (MDA-MB-231 cells) | levels of cleaved caspase-3 (cleaved caspase 3) | increase of degree of apoptosis (caspase-3 activity) (Caspase 3)
formyl-MDGCEL (For-MDGCEL; listed as Homo sapiens) [Foxy-5] | upregulated | apoptotic cells displaying altered nuclear morphology | higher levels | three
recombinant Wnt-5a: recombinant Wnt-5a protein (R&D Systems) (protein, UniProt P41221 62-380, looked up) Protein Wnt-5a: IIGAQPLCSQLAGLSQGQKKLCHLYQDHMQYIGEGAKTGIKECQYQFRHRRWNCSTVDNTSVFGRVMQIGSRETAFTYAVSAAGVVNAMSRACREGELSTCGCSRAARPKDLPRDWLWGGCGDNIDYGYRFAKEFVDARERERIHAKGSYESARILMNLHNNEAGRRTVYNLADVACKCHGVSGSCSLKTCWLQLADFRKVGDALKEKYDSAAAMRLNSRGKLVQVNSRFNSPTTQDLVYIDPSPDYCVRNESTGSLGTQGRLCNKTSEGMDGCELMCCGRGYDQFKTVQTERCHCKFHWCCYVKCKKCTEIVDQFVCK | upregulated | apoptotic cells displaying altered nuclear morphology | higher levels | two
